Converted amounts (≈) assume the structure as drawn. Read-outs that look alike come from different tables or passages of the source.
Columns and labels:
[1] = test system: Salmonella typhimurium strains TA 1535 and TA 1538; conditions: With S9; 5 μg/plate
Procedure: The Ames test was conducted using histidine auxotroph Salmonella typhimurium strains TA 1535 and TA 1538. To test mutagenic potential of the synthetic retinoids themselves and their metabolic products, the assay was conducted both with and without rat liver S9 fraction (Moltox, Boone, N.C., USA). Briefly, 100 μl of bacterial overnight cultures was added into 500 μl of phosphate buffer containing a range of amounts of the retinoids dissolved in 10 μl DMSO and with or without 4% S9. After incubation at 37° C. for 1 h, the samples were added into 2 ml of soft agar including 0.5 mM of histidine/biotin, mixed, and poured onto minimal glucose agar plates. The plates were incubated at 37° C. for 48 h, and the revertant colonies were counted. 10 μl DMSO was used as a negative control. […] 5 μg/plate 2-aminoanthracene was used as a positive control for both strains in the metabolic activation system. The test was performed in triplicate.

C. neoformans = assay: MIC against fungal cultures; type: cell-based; conditions: Cryptococcus neoformans, read-out: Drug MIC
Procedure: (§1) The cells were harvested by centrifugation at 4000 RPM for 5 minutes and washed with PBS; the cell pellets were resuspended in RPMI 1640 medium. The cell count was calculated with a hemocytometer and adjusted to be between 5.0×10^4 to 2.5×10^6 cells/ml. A tested compound was prepared and added to RPMI 1640 medium at 2× the final concentration. […] For C. albicans, OD595 was read after incubating the plate at 35° C. for 24 hrs. For KN99α, OD595 was read after incubating the plate at 35° C. for 70 hrs in accordance with CLSI document M27-A2.

Candida tropicalis = assay: MIC against fungal cultures; type: cell-based
Procedure: as §1

Candida glabrata = assay: MIC against fungal cultures; type: cell-based; conditions: Nakaseomyces glabratus, read-out: Drug MIC
E. faecium = assay: MIC, broth microdilution; type: cell-based, Enterococcus faecium; conditions: Enterococcus faecium, read-out: Drug MIC
Excerpt: (§2) Bacterial strains and growth conditions and persister isolation: methicillin-resistant S. aureus (MRSA) strain MW2 BAA-1707, vancomycin-resistant S. aureus strain VRS 1, 11 clinical S. aureus isolates, 8 clinical Enterococcus faecium isolates, Klebsiella pneumoniae WGLW2 (BEI Resources, Manassas, Va., USA), Acinetobacter baumannii ATCC 17978, Pseudomonas aeruginosa PA14, and Enterobacter aerogenes ATCC 13048 were used to test antimicrobial activity (See Table 1a). S. aureus and E. faecium strains were grown in tryptic soy broth (TSB) (BD, Franklin Lakes, N.J., USA) or brain-heart infusion (BHI) broth (BD, Franklin Lakes, N.J., USA), respectively at 37° C. at 225 rpm. K. pneumoniae, A. baumannii, P. aeruginosa, and E. aerogenes were grown in Luria Bertani (LB) broth (BD, Franklin Lakes, N.J., USA).
(§3) To test the bacterial MICs for compounds described herein, the total volume in each well was 100 μl of test compounds and bacterial cells in MH broth. […] The bacterial concentration was adjusted to an initial OD600 of 0.03. After incubation at 35° C. for 18 hrs, the absorbance was measured at 595 nm in accordance with CLSI document M07-A8. The MICs of antibiotics were determined by the standard microdilution method recommended by the Clinical and Laboratory Standards Institute.

S. aureus = assay: Minimal inhibitory concentration (MIC), broth microdilution; type: cell-based, Staphylococcus aureus
Excerpt: as §2, §3

[2] = C. neoformans clinical isolate 41291
[3] = C. neoformans clinical isolate 41292
[4] = C. neoformans clinical isolate 41294
[5] = C. neoformans clinical isolate 41295
[6] = C. neoformans clinical isolate 41296
[7] = C. neoformans clinical isolate 41297
[8] = C. neoformans clinical isolate 41298
[9] = C. neoformans clinical isolate 41299
[10] = C. neoformans clinical isolate 41300
[11] = C. neoformans clinical isolate BF113
[12] = C. neoformans clinical isolate BF114
[13] = ATCC13803, Candida tropicalis ATCC 13803 (Reference), read-out: Drug MIC
[14] = Candida tropicalis clinical isolate 11, read-out: Drug MIC
[15] = Candida tropicalis clinical isolate 85-S, read-out: Drug MIC
[16] = Candida tropicalis clinical isolate 172-S, read-out: Drug MIC
[17] = ATCC90030, Candida glabrata ATCC 90030 (Reference)
[18] = Candida glabrata clinical isolate 6891
[19] = Candida glabrata clinical isolate 6922
[20] = Candida glabrata clinical isolate 6927
[21] = Candida glabrata clinical isolate 6930
[22] = Candida glabrata clinical isolate 6931
[23] = Candida glabrata clinical isolate 6932
[24] = Candida glabrata clinical isolate 6943
[25] = Candida glabrata clinical isolate 7110
[26] = Candida glabrata clinical isolate 7117
[27] = Candida glabrata clinical isolate 7221
[28] = Candida glabrata clinical isolate 7255
[29] = Candida glabrata clinical isolate 7815
[30] = Candida glabrata clinical isolate 7869
[31] = Candida glabrata clinical isolate 7871
[32] = Candida glabrata clinical isolate 8066

## Nc1ccc2cc3ccccc3cc2c1 [2AA, 2-Aminoanthracene]
[1]
  Number of revertants (T1535): 263 ± 15
  Number of revertants (T1538): 2568 ± 108

## C[C@@H]1[C@H](O)[C@@H](C)/C=C/C=C/C=C/C=C/C=C/C=C/C=C/[C@H](O[C@@H]2O[C@H](C)[C@@H](O)[C@H](N)[C@@H]2O)C[C@@H]2O[C@](O)(C[C@@H](O)C[C@@H](O)[C@H](O)CC[C@@H](O)C[C@@H](O)CC(=O)O[C@H]1C)C[C@H](O)[C@H]2C(=O)O [Amphotericin B]
C. neoformans; [2]
  MIC: 0.125 µg/mL (≈ 0.135 µM)
C. neoformans; [3]
  MIC: 0.125 µg/mL (≈ 0.135 µM)
C. neoformans; [4]
  MIC: 0.125 µg/mL (≈ 0.135 µM)
C. neoformans; [5]
  MIC: 0.125 µg/mL (≈ 0.135 µM)
C. neoformans; [6]
  MIC: 0.125 µg/mL (≈ 0.135 µM)
C. neoformans; [7]
  MIC: 0.125 µg/mL (≈ 0.135 µM)
C. neoformans; [8]
  MIC: 0.125 µg/mL (≈ 0.135 µM)
C. neoformans; [9]
  MIC: 0.125 µg/mL (≈ 0.135 µM)
C. neoformans; [10]
  MIC: 0.125 µg/mL (≈ 0.135 µM)
C. neoformans; [11]
  MIC: 0.125 µg/mL (≈ 0.135 µM)
C. neoformans; [12]
  MIC: < 0.0625 µg/mL
Candida tropicalis; [13]
  MIC: 1 µg/mL (≈ 1.08 µM)
Candida tropicalis; [14]
  MIC: 0.5 µg/mL (≈ 0.541 µM)
Candida tropicalis; [15]
  MIC: 0.125 µg/mL (≈ 0.135 µM)
Candida tropicalis; [16]
  MIC: 0.5 µg/mL (≈ 0.541 µM)
Candida glabrata; [17]
  MIC: 1 µg/mL (≈ 1.08 µM)
Candida glabrata; [18]
  MIC: 0.5 µg/mL (≈ 0.541 µM)
Candida glabrata; [19]
  MIC: 0.5 µg/mL (≈ 0.541 µM)
Candida glabrata; [20]
  MIC: 1 µg/mL (≈ 1.08 µM)
Candida glabrata; [21]
  MIC: 1 µg/mL (≈ 1.08 µM)
Candida glabrata; [22]
  MIC: 0.5 µg/mL (≈ 0.541 µM)
Candida glabrata; [23]
  MIC: 0.5 µg/mL (≈ 0.541 µM)
Candida glabrata; [24]
  MIC: 1 µg/mL (≈ 1.08 µM)
Candida glabrata; [25]
  MIC: 0.5 µg/mL (≈ 0.541 µM)
Candida glabrata; [26]
  MIC: 0.5 µg/mL (≈ 0.541 µM)
Candida glabrata; [27]
  MIC: 0.5 µg/mL (≈ 0.541 µM)
Candida glabrata; [28]
  MIC: 1 µg/mL (≈ 1.08 µM)
Candida glabrata; [29]
  MIC: 0.5 µg/mL (≈ 0.541 µM)
Candida glabrata; [30]
  MIC: 1 µg/mL (≈ 1.08 µM)
Candida glabrata; [31]
  MIC: 1 µg/mL (≈ 1.08 µM)
Candida glabrata; [32]
  MIC: 0.5 µg/mL (≈ 0.541 µM)

## OC(Cn1cncn1)(Cn1cncn1)c1ccc(F)cc1F [Fluconazole]
C. neoformans; [2]
  MIC: 8 µg/mL (≈ 26.1 µM)
C. neoformans; [3]
  MIC: 64 µg/mL (≈ 209 µM)
C. neoformans; [4]
  MIC: 8 µg/mL (≈ 26.1 µM)
C. neoformans; [5]
  MIC: 64 µg/mL (≈ 209 µM)
C. neoformans; [6]
  MIC: > 64 µg/mL
C. neoformans; [7]
  MIC: 8 µg/mL (≈ 26.1 µM)
C. neoformans; [8]
  MIC: 8 µg/mL (≈ 26.1 µM)
C. neoformans; [9]
  MIC: 4 µg/mL (≈ 13.1 µM)
C. neoformans; [10]
  MIC: > 64 µg/mL
C. neoformans; [11]
  MIC: 16 µg/mL (≈ 52.2 µM)
C. neoformans; [12]
  MIC: 64 µg/mL (≈ 209 µM)
Candida tropicalis; [13]
  MIC: 8 µg/mL (≈ 26.1 µM)
Candida tropicalis; [14]
  MIC: 0.5 µg/mL (≈ 1.63 µM)
Candida tropicalis; [15]
  MIC: 1 µg/mL (≈ 3.27 µM)
Candida tropicalis; [16]
  MIC: 2 µg/mL (≈ 6.53 µM)
Candida glabrata; [17]
  MIC: 8 µg/mL (≈ 26.1 µM)
Candida glabrata; [18]
  MIC: 2 µg/mL (≈ 6.53 µM)
Candida glabrata; [19]
  MIC: 2 µg/mL (≈ 6.53 µM)
Candida glabrata; [20]
  MIC: 2 µg/mL (≈ 6.53 µM)
Candida glabrata; [21]
  MIC: 1 µg/mL (≈ 3.27 µM)
Candida glabrata; [22]
  MIC: 0.5 µg/mL (≈ 1.63 µM)
Candida glabrata; [23]
  MIC: 0.5 µg/mL (≈ 1.63 µM)
Candida glabrata; [24]
  MIC: 8 µg/mL (≈ 26.1 µM)
Candida glabrata; [25]
  MIC: 1 µg/mL (≈ 3.27 µM)
Candida glabrata; [26]
  MIC: 2 µg/mL (≈ 6.53 µM)
Candida glabrata; [27]
  MIC: 1 µg/mL (≈ 3.27 µM)
Candida glabrata; [28]
  MIC: 2 µg/mL (≈ 6.53 µM)
Candida glabrata; [29]
  MIC: 2 µg/mL (≈ 6.53 µM)
Candida glabrata; [30]
  MIC: 4 µg/mL (≈ 13.1 µM)
Candida glabrata; [31]
  MIC: 2 µg/mL (≈ 6.53 µM)
Candida glabrata; [32]
  MIC: 2 µg/mL (≈ 6.53 µM)

## O=C(N[C@H](CO)[C@H](O)c1ccc([N+](=O)[O-])cc1)C(Cl)Cl [chloramphenicol]
E. faecium; Enterococcus faecium clinical isolate C68 (Table 6)
  MIC: 16 µg/mL (≈ 49.5 µM)
E. faecium; Enterococcus faecium clinical isolate D14 (Table 6)
  MIC: 8 µg/mL (≈ 24.8 µM)
E. faecium; Enterococcus faecium clinical isolate D24 (Table 6)
  MIC: 4 µg/mL (≈ 12.4 µM)
E. faecium; Enterococcus faecium clinical isolate D25 (Table 6)
  MIC: 8 µg/mL (≈ 24.8 µM)
E. faecium; Enterococcus faecium clinical isolate D29 (Table 6)
  MIC: 64 µg/mL (≈ 198 µM)
E. faecium; Enterococcus faecium clinical isolate W312 (Table 6)
  MIC: 8 µg/mL (≈ 24.8 µM)
E. faecium; Enterococcus faecium clinical isolate WC176 (Table 6)
  MIC: 16 µg/mL (≈ 49.5 µM)

## Defensin 1: a CAMP (cationic antimicrobial peptide) secreted by the host immune system
S. aureus; S. aureus MW2 mutant SP1-8 (graS)
  MIC: 8 µg/mL
S. aureus; S. aureus MW2 mutant SP1-48 (graS, manA)
  MIC: 8 µg/mL
S. aureus; S. aureus MW2 mutant SP1-74 (graS, manA, MW2474)
  MIC: 8 µg/mL
S. aureus; S. aureus MW2 mutant SP1-100 (graS, manA, MW2474)
  MIC: 8 µg/mL
S. aureus; S. aureus MW2 mutant SP2-13 (yjbH)
  MIC: 16 µg/mL
S. aureus; S. aureus MW2 mutant SP2-52 (yjbH, dltB)
  MIC: 8 µg/mL
S. aureus; S. aureus MW2 mutant SP2-59 (yjbH, dltB, manA)
  MIC: 8 µg/mL
S. aureus; S. aureus MW2 mutant SP2-65 (yjbH, dltB, manA, MW1685)
  MIC: 8 µg/mL
S. aureus; S. aureus MW2 mutant SP2-100 (yjbH dltB, manA, MW1685)
  MIC: 8 µg/mL
S. aureus; S. aureus MW2 serial passage culture SP1-1 (no mutated gene)
  MIC: 16 µg/mL
S. aureus; S. aureus MW2 serial passage culture SP2-1 (no mutated gene)
  MIC: 16 µg/mL

Source: patent US11707442B2, “Antibacterial and antifungal compounds” (The General Hospital Corporation, priority 2015, dated 2023)
